# Patent US9200046B2, “Reporter system for high throughput screening of compounds and uses thereof” (priority 2011, dated 2015)
# Structures can show the parent of a compound that is named as a salt. Where two headings read alike, the source gives them in different places.
# Molecular target: Nrf2-Keap1 complex (Homo sapiens, UniProt Q14145)
# Test: cell-based
# Type: cell-based
# Conditions: for activation at 16 µM / activation at 32 µM: 3 h; for activation at 16 µM: read-out: Activation 100 nL; for activation at 32 µM: read-out: Activation 200 nL
# [1] = Table 2, 100 nL compound, screen run at 16 and 32 μM, 3 hr
# [2] = Table 2, 200 nL compound, screen run at 16 and 32 μM, 3 hr
# [3] = Table 1A, 100 nL compound, screen run at 16 and 32 μM, 3 hr
# [4] = Table 1A, 200 nL compound, screen run at 16 and 32 μM, 3 hr
# Sequence of Nrf2-Keap1 complex (Q14145 whole entry, one chain of several): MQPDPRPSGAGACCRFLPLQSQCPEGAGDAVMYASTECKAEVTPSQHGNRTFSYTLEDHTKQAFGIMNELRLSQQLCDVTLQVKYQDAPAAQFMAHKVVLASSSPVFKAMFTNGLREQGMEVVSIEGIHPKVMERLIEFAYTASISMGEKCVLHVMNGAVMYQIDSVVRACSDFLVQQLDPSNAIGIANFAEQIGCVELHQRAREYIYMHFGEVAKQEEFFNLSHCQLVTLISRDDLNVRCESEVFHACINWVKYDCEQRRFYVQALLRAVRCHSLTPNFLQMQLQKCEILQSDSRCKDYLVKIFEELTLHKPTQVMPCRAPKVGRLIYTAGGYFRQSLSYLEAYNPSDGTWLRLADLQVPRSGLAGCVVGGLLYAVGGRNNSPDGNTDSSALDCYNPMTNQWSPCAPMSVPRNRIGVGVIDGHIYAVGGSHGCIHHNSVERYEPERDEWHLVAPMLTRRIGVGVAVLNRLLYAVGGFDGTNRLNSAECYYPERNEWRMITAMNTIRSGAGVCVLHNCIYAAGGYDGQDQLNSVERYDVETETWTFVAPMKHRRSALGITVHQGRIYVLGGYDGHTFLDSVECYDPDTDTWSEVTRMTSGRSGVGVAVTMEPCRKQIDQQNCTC
Structure (SMILES),activation at 16 µM,activation at 32 µM,100 nL (luminescence) [1],200 nL (luminescence) [2],also measured
"O=C(/C=C/c1ccc(O)cc1)c1ccccc1O [2′,4-DIHYDROXYCHALCONE]",390%,-9%,3784,120,
COc1cc(C)c2c(c1C=O)Oc1c(c(C)c(O)c3c1C(O)OC3=O)OC2=O (centres unmarked) [[…]],56%,65%,1114,1952,
COc1cc(C/C=C/c2ccccc2)c(OC)cc1O [VIOLASTYRENE],133%,50%,2388,1096,
"CC(=O)OC1CC[C@@]2(C)C(CC[C@H]3[C@@H]4CC=C(C(C)=O)[C@@]4(C)C(=O)C[C@@H]32)C1 (some centres unmarked) [3-ACETOXYPREGN-16-EN-12,20-DIONE]",214%,30%,2236,1040,
"O=C1c2cccc(O)c2C(=O)c2c(O)cccc21 [DANTRON, reference compound]",29%,29%,616,1020,
CC1(C)C(=O)C=C[C@]2(C)[C@H]3CC[C@@]4(C)[C@H](c5ccoc5)OC(=O)[C@H]5O[C@]54[C@]3(C)C(=O)C[C@@H]12 [DEACETOXY-7-OXOGEDUNIN],,,1048,448,Activation 100 nL: 45%; Activation 200 nL: 8%
"CC1CCC(NC(=O)N(CCCl)N=O)CC1 (centres unmarked) [SEMUSTINE, reference compound]",39%,144%,,,100 nL (luminescence): 1172; 200 nL (luminescence): 3000
CNC(=O)Oc1cccc2c1OC(C)(C)O2 [BENDIOCARB],87%,101%,,,100 nL (luminescence): 1532; 200 nL (luminescence): 2760
CC1=CC(=O)[C@H]2C(C)(C)CCC[C@]2(C)[C@@]1(O)CCc1ccoc1 [SOLIDAGENONE],121%,77%,,,100 nL (luminescence) [3]: 1976; 200 nL (luminescence) [4]: 2220
COc1cc(O)cc(OC)c1OC [ANTIAROL],74%,81%,1016,2248,
"COc1ccc(/C=C/C(=O)c2ccc(O)cc2O)cc1 [2′,4′-DIHYDROXY-4-METHOXYCHALCONE]",246%,121%,4576,2720,
"C[C@]12C=CC(=O)C=C1CC[C@@H]1[C@@H]2CC[C@]2(C)C(=O)CC[C@@H]12 [ANDROSTA-1,4-DIEN-3,17-DIONE]",81%,70%,1444,2048,
COc1cc(/C=C/CO)ccc1O [CONIFERYLALCOHOL],125%,79%,2032,2264,
"O=C(/C=C/c1ccccc1)c1ccc(O)cc1O [2′,4′-DIHYDROXYCHALCONE]",227%,45%,2352,1388,
"C=C(NC(=O)C(=C)NC(=O)c1csc(C2=N[C@@H]3c4csc(n4)[C@H]4NC(=O)c5csc(n5)[C@H]([C@](C)(O)[C@@H](C)O)NC(=O)[C@H]5CSC(=N5)/C(=C/C)NC(=O)[C@H]([C@@H](C)O)NC(=O)c5csc(n5)[C@]3(CC2)NC(=O)[C@H](C)NC(=O)C(=C)NC(=O)[C@H](C)NC(=O)[C@H]([C@@H](C)CC)N[C@@H]2C=Cc3c([C@H](C)O)cc(nc3[C@H]2O)C(=O)O[C@@H]4C)n1)C(N)=O [THIOSTREPTON, reference compound]",58%,50%,,,100 nL (luminescence) [3]: 876; 200 nL (luminescence) [4]: 1504
CCOCN(C(=O)CCl)c1c(C)cccc1CC [ACETOCHLOR],71%,112%,1320,3024,
"O=c1c(O)c(-c2ccc(O)cc2)oc2cc(O)cc(O)c12 [kaempferol, 3,5,7,4′-tetrahydroxyflavone]",,,,,fold less effective than quercetin and fisetin (flavone SAR): 2.5 fold
"C#C[C@]1(O)CC[C@H]2[C@@H]3CCC4=C(CCC(=O)C4)[C@H]3CC[C@@]21C [NORETHYNODREL, reference compound]",128%,171%,,,100 nL (luminescence): 1948; 200 nL (luminescence): 3920
Oc1cc(O)c2c(c1)O[C@H](c1cc(O)c(O)c(O)c1)[C@H](O)C2 [EPIGALLOCATECHIN],33%,-20%,864,28,
"CC1CCc2cc(F)cc3c(=O)c(C(=O)O)cn1c23 (centres unmarked) [FLUMEQUINE, reference compound]",38%,-2%,,,100 nL (luminescence): 1156; 200 nL (luminescence): 368

Structure (SMILES),activation at 16 µM,activation at 32 µM,100 nL (luminescence) [1],200 nL (luminescence) [2],also measured
COc1ccc2c(c1)OC/C(=C/c1ccc(OC)c(OC)c1)C2=O [SAPPANONEATRIMETHYLETHER],246%,93%,3652,2586,
CC(=O)O[C@@H]1CC2C(C)(C)[C@H](O)CC[C@]2(C)C2CC[C@@]3(C)[C@H](c4ccoc4)OC(=O)C4OC43[C@@]21C (stereo partly drawn) [alpha-DIHYDROGEDUNOL],,,720,1008,Activation 100 nL: 41%; Activation 200 nL: 29%; Neh2-luc reporter activation: 40%
"COc1ccc2c(c1)[C@@]1(C)CCC(=O)C[C@H]1CC2 [5beta-12-METHOXY-4,4-BISNOR-8,11,13-PODOCARPATRIEN-3-ONE]",46%,13%,,,100 nL (luminescence) [3]: 768; 200 nL (luminescence) [4]: 636
Cc1cccc2c3c(ccc12)C1=C(C(=O)C3=O)[C@@H](C)CO1 [DIHYDROTANSHINONEI],158%,5%,2480,572,
Oc1ccc2c(c1)OCC1c3cc4c(cc3OC21)OCO4 (centres unmarked) [MAACKIAIN],74%,95%,,,100 nL (luminescence) [3]: 1492; 200 nL (luminescence) [4]: 1772
C=C1CC[C@@H]2[C@](C)(CO)[C@H](O)CC[C@@]2(C)[C@@H]1C/C=C1/C(=O)OC[C@H]1O [ANDROGRAPHOLIDE],78%,11%,,,100 nL (luminescence): 1404; 200 nL (luminescence): 708
O=C(CC(=O)c1ccccc1)c1ccccc1 [DIBENZOYLMETHANE],66%,-8%,,,100 nL (luminescence): 1368; 200 nL (luminescence): 204
CC(C)CCCC1(C)C=Cc2c(O)c3c(c(CCC(C)C)c2O1)OC12C(CC4CC1C(C)(C)OC2(CCC(C)C(=O)O)C4O)C3=O (centres unmarked) [DECAHYDROGAMBOGICACID],54%,40%,1184,936,
Cc1coc2c1C(=O)C(=O)c1c-2ccc2c1CCCC2(C)C [TANSHINONEIIA],354%,87%,5092,2452,
COc1cc([C@@H]2c3cc4c(c(O)c3C[C@H]3COC(=O)[C@@H]32)OCO4)cc(OC)c1OC [beta-PELTATIN],62%,21%,,,100 nL (luminescence) [3]: 910; 200 nL (luminescence) [4]: 836
"COc1cc2nc(N3CCN(C(=O)c4ccco4)CC3)nc(N)c2cc1OC [PRAZOSINHYDROCHLORIDE, reference compound]",87%,40%,,,
"C=C[C@@]1(C)CC(=O)[C@]2(O)[C@@]3(C)[C@@H](O)CCC(C)(C)[C@@H]3[C@H](O)[C@H](OC(C)=O)[C@@]2(C)O1 [COLFORSIN, reference compound]",91%,120%,2208,2568,
Cc1cc(O)ccc1Cl [CHLOROCRESOL],25%,-5%,,,
"COC(=O)Nc1nc2cc(C(=O)c3ccccc3)ccc2[nH]1 [MEBENDAZOLE, reference compound]",74%,216%,,,100 nL (luminescence) [3]: 1872; 200 nL (luminescence) [4]: 3056
COc1ccc2c(c1)OCC(Cc1ccc(OC(C)=O)c(OC)c1)C2=O (centres unmarked),,,3740,1388,Activation 100 nL: 221%; Activation 200 nL: 70%
CCc1cccc(CC)c1N(COC)C(=O)CCl [ALACHLOR],261%,194%,3852,4892,
"COc1cc([C@@H]2c3cc4c(cc3[C@@H](O[C@@H]3O[C@@H]5CO[C@@H](c6cccs6)O[C@H]5[C@H](O)[C@H]3O)[C@H]3COC(=O)[C@H]23)OCO4)cc(OC)c1O [TENIPOSIDE, reference compound]",159%,61%,3572,1520,Neh2-luc reporter activation: 200%
CC(C)c1cccc(=O)c(O)c1 [HINOKITIOL],29%,1%,860,372,
O=C(CC[N+](=O)[O-])OC[C@H]1O[C@@H](O)[C@H](OC(=O)CC[N+](=O)[O-])[C@@H](OC(=O)CC[N+](=O)[O-])[C@@H]1OC(=O)CC[N+](=O)[O-] [[…]],,,1020,1268,Activation 100 nL: 75%; Activation 200 nL: 40%
"C[C@@H]1C(=O)O[C@H]2[C@H]1CC[C@@]1(C)C=CC(=O)[C@@]3(C)O[C@@]213 [EPOXY(4,5alpha)-4,5-DIHYDROSANTONIN]",,,3828,3164,Activation 100 nL: 227%; Activation 200 nL: 186%
